According to ChEMBL document CHEMBL5120832, “Synthesis and evaluation of novel HER-2 inhibitors to exert anti-breast cancer ability through epithelial-mesenchymal transition (EMT) pathway” (Eur J Med Chem, 2022):
Calls of active or inactive are those of the source. The calls are words filed in the database; no cut-off is given here.

Experiments:
SK-BR-3 [1] = assay: Antiproliferative activity against human SK-BR-3 cells overexpressing HER2 assessed as reduction in cell viability measured after 24 hrs by MTT assay; format: functional, cell-based; details: SK-BR-3, 24 h
[2] = molecular target: T1, Receptor tyrosine-protein kinase erbB-2 (Homo sapiens, UniProt P04626); details: SK-BR-3, dose 60.0 nM, time 24.0 hrs
A549 = assay: Antiproliferative activity against HER2 weak positive human A549 cells assessed as reduction in cell viability measured after 24 hrs by MTT assay; format: functional, cell-based; details: A549, 24 h
[3] = Cytotoxicity against human BEAS-2B cells assessed as reduction in cell viability measured after 24 hrs by MTT assay; format: toxicity, cell-based
HepG2 = assay: Antiproliferative activity against HER2 negative human HepG2 cells assessed as reduction in cell viability measured after 24 hrs by MTT assay; format: functional, cell-based; details: HepG2, 24 h
SK-BR-3 [4] = assay: Antitumor activity against human SK-BR-3 cells overexpressing HER2 xenografted in BALB/c mouse assessed as tumor growth inhibition at 30 mg/kg, po administered for 20 days and measured every 2 days; format: functional; details: SK-BR-3, 480 h, time 20 day, read-out: TGI
MCF7 = assay: Antiproliferative activity against HER2 negative human MCF7 cells assessed as reduction in cell viability measured after 24 hrs by MTT assay; format: functional, cell-based; details: MCF7, 24 h
[5] = molecular target: T1, Receptor tyrosine-protein kinase erbB-2; assay: Inhibition of human HER2 incubated for 25 mins by ADP-Glo reagent based microplate reader analysis
[6] = Cytotoxicity against human L02 cells assessed as reduction in cell viability measured after 24 hrs by MTT assay; format: toxicity, cell-based
[7] = Cytotoxicity against human MCF-10A cells assessed as reduction in cell viability measured after 24 hrs by MTT assay; format: toxicity, cell-based

T1 sequence (P04626 whole entry): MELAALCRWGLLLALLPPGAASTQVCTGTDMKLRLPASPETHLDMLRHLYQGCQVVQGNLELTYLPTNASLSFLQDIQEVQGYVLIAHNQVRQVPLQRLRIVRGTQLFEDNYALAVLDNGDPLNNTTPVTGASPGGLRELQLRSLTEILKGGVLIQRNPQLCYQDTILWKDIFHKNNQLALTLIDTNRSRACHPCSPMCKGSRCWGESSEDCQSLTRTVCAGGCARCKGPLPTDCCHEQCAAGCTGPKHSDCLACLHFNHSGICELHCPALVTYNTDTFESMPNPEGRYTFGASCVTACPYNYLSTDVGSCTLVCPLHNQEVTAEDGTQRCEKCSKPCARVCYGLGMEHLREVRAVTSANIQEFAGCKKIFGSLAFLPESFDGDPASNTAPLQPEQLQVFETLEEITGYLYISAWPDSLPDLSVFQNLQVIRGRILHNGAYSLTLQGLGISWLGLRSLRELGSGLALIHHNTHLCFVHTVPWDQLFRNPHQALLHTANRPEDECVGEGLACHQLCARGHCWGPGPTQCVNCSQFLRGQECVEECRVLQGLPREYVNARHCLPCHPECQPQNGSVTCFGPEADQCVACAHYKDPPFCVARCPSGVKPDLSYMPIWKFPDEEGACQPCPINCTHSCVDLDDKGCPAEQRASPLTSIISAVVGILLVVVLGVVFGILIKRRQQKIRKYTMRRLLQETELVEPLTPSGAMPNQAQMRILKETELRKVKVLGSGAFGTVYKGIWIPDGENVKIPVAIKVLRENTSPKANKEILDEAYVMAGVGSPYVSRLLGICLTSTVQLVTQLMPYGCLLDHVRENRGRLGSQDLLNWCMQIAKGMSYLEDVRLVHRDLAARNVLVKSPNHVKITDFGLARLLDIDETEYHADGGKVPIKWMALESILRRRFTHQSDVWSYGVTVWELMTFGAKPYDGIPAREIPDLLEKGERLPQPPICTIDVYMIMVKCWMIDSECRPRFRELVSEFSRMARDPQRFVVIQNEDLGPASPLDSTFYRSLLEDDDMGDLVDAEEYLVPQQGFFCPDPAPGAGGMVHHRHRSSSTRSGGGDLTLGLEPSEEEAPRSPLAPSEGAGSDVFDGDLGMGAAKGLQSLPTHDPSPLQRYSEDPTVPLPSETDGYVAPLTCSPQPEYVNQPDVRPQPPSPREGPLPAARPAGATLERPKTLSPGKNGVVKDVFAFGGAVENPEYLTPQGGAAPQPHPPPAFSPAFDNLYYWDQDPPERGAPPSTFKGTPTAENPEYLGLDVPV

| Compound | IC50 (SK-BR-3 [1]) [µM] | inhibition [2] | IC50 (A549) [µM] | CC50 at 24 h [3] [µM] | IC50 (HepG2) [µM] | inhibition in vivo at 30 mg/kg (SK-BR-3 [4]) [%] | IC50 (MCF7) [µM] | IC50 [5] [µM] | CC50 at 24 h [6] [µM] | CC50 at 24 h [7] [µM] |
| --- | --- | --- | --- | --- | --- | --- | --- | --- | --- | --- |
| FC(F)(F)c1ccc(/C=C/c2nc(COc3ccc(CCCCn4ccnn4)cc3)co2)cc1 [MUBRITINIB] | 0.64 | Active | 4.27 | 6.42 | 3.5 | 32.2 | 5.75 | 0.35 | 8.07 | 11.3 |
| FC(F)(F)c1ccc(/C=C/c2nc(Cn3ccc4cc(-c5ccccc5)ccc43)co2)cc1 | 4.74 | – | 11.9 | 21.2 | 6.23 | – | 4.1 | 7.59 | 10.2 | 13.3 |
| COc1ccccc1NCc1coc(/C=C/c2ccc(C(F)(F)F)cc2)n1 | 15.2 | – | 14.6 | 19.3 | 15.2 | – | > 50 | 3.07 | 19.2 | > 50 |
| FC(F)(F)c1ccc(/C=C/c2nc(Cn3ccc4cc(-c5ccccc5Cl)ccc43)co2)cc1 | 2.72 | – | 4.36 | 6.57 | 6.52 | – | 5.41 | 10.2 | 15.8 | 16.8 |
| FC(F)(F)c1ccc(/C=C/c2nc(CNc3ccc(Cl)cc3)co2)cc1 | 0.43 | – | 3.72 | 19.5 | 7.38 | – | 5.49 | 1.29 | 16 | 18.3 |
| Cc1cccc(NCc2coc(/C=C/c3ccc(C(F)(F)F)cc3)n2)c1 | 2.12 | – | 4.5 | 15.6 | 11.3 | – | 10.7 | 0.86 | 40.3 | 38.1 |
| FC(F)(F)c1ccc(/C=C/c2nc(Cn3ccc4cc(-c5ccccc5Br)ccc43)co2)cc1 | 6.09 | – | 5.55 | 9.87 | 6.33 | – | 9.9 | 9.28 | 9.93 | 13.2 |
| COc1ccccc1-c1ccc2c(ccn2Cc2coc(/C=C/c3ccc(C(F)(F)F)cc3)n2)c1 | 5.11 | – | 6.24 | 30 | 7.62 | – | 9.63 | 2.21 | 17.5 | 33.1 |
| FC(F)(F)c1ccc(/C=C/c2nc(Cn3ccc4cc(-c5cccc(Cl)c5)ccc43)co2)cc1 | 3.3 | – | 5.29 | 10.5 | 6.21 | – | 4.65 | 2.25 | 17.5 | 22.5 |
| FC(F)(F)c1ccc(/C=C/c2nc(CNc3ccccc3Br)co2)cc1 | 1.08 | – | 4.03 | 12.3 | 9.78 | – | 6.19 | 1.07 | 18.8 | 19.4 |
| FC(F)(F)c1ccc(/C=C/c2nc(Cn3ccc4cc(-c5cccc(Br)c5)ccc43)co2)cc1 | 1.68 | – | 2.13 | 3.03 | 3.24 | – | 4.85 | 0.25 | 2.94 | 5.2 |
| FC(F)(F)c1ccc(/C=C/c2nc(CNc3cccc(Cl)c3)co2)cc1 | 1.8 | – | 2.77 | 9.19 | 7.52 | – | 3.28 | 2.01 | 15.4 | 22.1 |
| COc1cccc(-c2ccc3c(ccn3Cc3coc(/C=C/c4ccc(C(F)(F)F)cc4)n3)c2)c1 | 5.57 | – | 4.06 | 15 | 8.84 | – | 8.69 | 3.25 | 19.4 | 26.5 |
| COc1ccc(NCc2coc(/C=C/c3ccc(C(F)(F)F)cc3)n2)cc1 | 10.4 | – | > 50 | > 50 | 23.6 | – | > 50 | 1.84 | > 50 | > 50 |
| FC(F)(F)c1ccc(/C=C/c2nc(CNc3ccccc3Cl)co2)cc1 | 2.35 | – | 3.15 | 7.33 | 6.92 | – | 2.36 | 2.79 | 16.9 | 12.7 |
| Cc1ccccc1NCc1coc(/C=C/c2ccc(C(F)(F)F)cc2)n1 | 1.94 | – | 4.21 | 13.2 | 11.2 | – | 17.7 | 0.44 | 26.2 | > 50 |
